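In this assay, cells in 96-well plates receive the compound at five concentrations for 48 hours. Endpoints are linearly interpolated between the surrounding concentrations. TGI: total growth inhibition.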
How the values were obtained:
Experiment in all cases: DTP human tumour cell line panel, 48 h
[1] = tested on: DMS 114 small cell lung
[2] = tested on: TK-10 renal
[3] = tested on: OVCAR-8 ovarian
[4] = tested on: OVCAR-5 ovarian
[5] = tested on: HL-60(TB) leukemia
[6] = tested on: KM20L2 colon
[7] = tested on: OVCAR-3 ovarian
[8] = tested on: HCT-15 colon
[9] = tested on: XF 498 CNS
[10] = tested on: EKVX NSCLC
[11] = tested on: UO-31 renal
[12] = tested on: 786-0 renal
[13] = tested on: RXF 393 renal
[14] = tested on: SK-MEL-28 melanoma
[15] = tested on: NCI-H226 lung
[16] = tested on: NCI-H23 lung
[17] = tested on: NCI-H460 lung
[18] = tested on: SF-539 CNS
[19] = tested on: LOX IMVI melanoma
[20] = tested on: HT29 colon
[21] = tested on: SNB-19 CNS
[22] = tested on: UACC-62 melanoma
[23] = tested on: SNB-78 CNS
[24] = tested on: IGROV1 ovarian
[25] = tested on: HCT-116 colon
[26] = tested on: SK-MEL-5 melanoma
[27] = tested on: HOP-62 NSCLC
[28] = tested on: M19-MEL melanoma
[29] = tested on: OVCAR-4 ovarian
[30] = tested on: SNB-75 CNS
[31] = tested on: ACHN renal
[32] = tested on: KM12 colon
[33] = tested on: CCRF-CEM leukemia
[34] = tested on: COLO 205 colon
[35] = tested on: SF-268 CNS
[36] = tested on: SR leukemia
[37] = tested on: MOLT-4 leukemia
[38] = tested on: SN12C renal
[39] = tested on: SW-620 colon
[40] = tested on: UACC-257 melanoma
[41] = tested on: LXFL 529 NSCLC
[42] = tested on: SK-OV-3 ovarian
[43] = tested on: M14 melanoma
[44] = tested on: U251 CNS
[45] = tested on: K-562 leukemia
[46] = tested on: DMS 273 small cell lung
[47] = tested on: RPMI-8226 leukemia
[48] = tested on: SF-295 CNS
[49] = tested on: HCC-2998 colon
[50] = tested on: A549 NSCLC
[51] = tested on: HOP-92 NSCLC
[52] = tested on: CAKI-1 renal
[53] = tested on: DU-145 prostate
[54] = tested on: SK-MEL-2 melanoma
[55] = tested on: MCF7 breast
[56] = tested on: BT-549 breast
[57] = tested on: A498 renal
[58] = tested on: MDA-MB-435
[59] = tested on: NCI/ADR-RES ovarian
[60] = tested on: NCI-H522 lung
[61] = tested on: T-47D breast
[62] = tested on: MDA-MB-231 breast
[63] = tested on: MALME-3M melanoma
[64] = tested on: PC-3 prostate
[65] = tested on: HS 578T breast
[66] = tested on: MDA-N

## Cc1cn(C2CC(N(O)Cc3ccccc3)C(CO)O2)c(=O)[nH]c1=O (stereo not given)
[1]
  TGI: > 100 µM
[2]
  TGI: > 100 µM
[3]
  TGI: > 100 µM
[4]
  TGI: > 100 µM
[5]
  TGI: > 100 µM
[6]
  TGI: > 100 µM
[7]
  TGI: > 100 µM
[8]
  TGI: > 100 µM
[9]
  TGI: > 100 µM
[10]
  TGI: > 100 µM
[11]
  TGI: > 100 µM
[12]
  TGI: > 100 µM
[13]
  TGI: > 100 µM
[14]
  TGI: > 100 µM
[15]
  TGI: > 100 µM
[16]
  TGI: > 100 µM
[17]
  TGI: > 100 µM
[18]
  TGI: > 100 µM
[19]
  TGI: > 100 µM
[20]
  TGI: > 100 µM
[21]
  TGI: > 100 µM
[22]
  TGI: > 100 µM
[23]
  TGI: > 100 µM
[24]
  TGI: > 100 µM
[25]
  TGI: > 100 µM
[26]
  TGI: > 100 µM
[27]
  TGI: > 100 µM
[28]
  TGI: > 100 µM
[29]
  TGI: > 100 µM
[30]
  TGI: > 100 µM
[31]
  TGI: > 100 µM
[32]
  TGI: > 100 µM
[33]
  TGI: > 100 µM
[34]
  TGI: > 100 µM
[35]
  TGI: > 100 µM
[36]
  TGI: > 100 µM
[37]
  TGI: > 100 µM
[38]
  TGI: > 100 µM
[39]
  TGI: > 100 µM
[40]
  TGI: > 100 µM
[41]
  TGI: > 100 µM
[42]
  TGI: > 100 µM
[43]
  TGI: > 100 µM
[44]
  TGI: > 100 µM
[45]
  TGI: > 100 µM
[46]
  TGI: > 100 µM
[47]
  TGI: > 100 µM
[48]
  TGI: > 100 µM
[49]
  TGI: > 100 µM
[50]
  TGI: > 100 µM

## C=CCNC1=C2C[C@@H](C)C[C@@H](OC)[C@@H](OC(=O)CCCN)[C@H](C)/C=C(\C)[C@@H](OC(N)=O)[C@H](OC)/C=C\C=C(/C)C(=O)NC(=CC1=O)C2=O
[2]
  TGI: 33.4 µM
[3]
  TGI: 42.5 µM
[4]
  TGI: 31.8 µM
[5]
  TGI: 19.7 µM
[51]
  TGI: 29.3 µM
[7]
  TGI: 32.8 µM
[8]
  TGI: 41.2 µM
[10]
  TGI: 39.1 µM
[11]
  TGI: 34.2 µM
[52]
  TGI: 35.3 µM
[53]
  TGI: 38.3 µM
[12]
  TGI: 42.2 µM
[13]
  TGI: 42.2 µM
[14]
  TGI: 41.9 µM
[15]
  TGI: 36.3 µM
[16]
  TGI: 29.6 µM
[54]
  TGI: 31 µM
[17]
  TGI: 59 µM
[55]
  TGI: 19.4 µM
[18]
  TGI: 29.9 µM
[19]
  TGI: > 47.3 µM
[20]
  TGI: 21.4 µM
[56]
  TGI: 25.7 µM
[21]
  TGI: 32.2 µM
[22]
  TGI: 31.8 µM
[24]
  TGI: 30.1 µM
[25]
  TGI: 52.9 µM
[26]
  TGI: 33.7 µM
[57]
  TGI: 36.3 µM
[27]
  TGI: 18.9 µM
[29]
  TGI: 48.4 µM
[30]
  TGI: 22.2 µM
[31]
  TGI: 38.9 µM
[58]
  TGI: 45.2 µM
[32]
  TGI: 19.2 µM
[59]
  TGI: > 100 µM
[60]
  TGI: 26.4 µM
[33]
  TGI: 28.9 µM
[61]
  TGI: > 67.2 µM
[34]
  TGI: 13.6 µM
[62]
  TGI: 33.5 µM
[63]
  TGI: 27.8 µM
[64]
  TGI: 29.1 µM
[35]
  TGI: 30.7 µM
[36]
  TGI: > 79 µM
[65]
  TGI: 49.5 µM
[37]
  TGI: 40.2 µM
[38]
  TGI: 44.2 µM
[39]
  TGI: > 60 µM
[66]
  TGI: 28.4 µM
[40]
  TGI: 31.9 µM
[42]
  TGI: 28.7 µM
[43]
  TGI: 28.7 µM
[44]
  TGI: > 50.4 µM
[45]
  TGI: > 100 µM
[47]
  TGI: 46.9 µM
[48]
  TGI: 31.6 µM
[49]
  TGI: 32.9 µM
[50]
  TGI: 32.8 µM

## CN(Nc1cc(=O)[nH]c(=O)[nH]1)c1ccccc1
[2]
  TGI: > 100 µM
[3]
  TGI: > 100 µM
[4]
  TGI: > 100 µM
[5]
  TGI: > 100 µM
[51]
  TGI: > 100 µM
[7]
  TGI: > 100 µM
[10]
  TGI: > 100 µM
[11]
  TGI: > 100 µM
[52]
  TGI: > 100 µM
[53]
  TGI: > 100 µM
[12]
  TGI: > 100 µM
[13]
  TGI: > 100 µM
[14]
  TGI: > 100 µM
[15]
  TGI: > 100 µM
[16]
  TGI: > 100 µM
[54]
  TGI: > 100 µM
[17]
  TGI: > 100 µM
[55]
  TGI: > 100 µM
[18]
  TGI: > 100 µM
[19]
  TGI: > 100 µM
[20]
  TGI: > 100 µM
[56]
  TGI: > 100 µM
[21]
  TGI: > 100 µM
[22]
  TGI: > 100 µM
[24]
  TGI: > 100 µM
[25]
  TGI: > 100 µM
[26]
  TGI: > 100 µM
[57]
  TGI: > 100 µM
[27]
  TGI: > 100 µM
[29]
  TGI: > 100 µM
[30]
  TGI: > 100 µM
[31]
  TGI: > 100 µM
[58]
  TGI: > 100 µM
[32]
  TGI: > 100 µM
[59]
  TGI: > 100 µM
[33]
  TGI: > 100 µM
[61]
  TGI: > 100 µM
[34]
  TGI: > 100 µM
[62]
  TGI: > 100 µM
[63]
  TGI: > 100 µM
[64]
  TGI: > 100 µM
[35]
  TGI: > 100 µM
[36]
  TGI: > 100 µM
[65]
  TGI: > 100 µM
[37]
  TGI: > 100 µM
[38]
  TGI: > 100 µM
[39]
  TGI: > 100 µM
[66]
  TGI: > 100 µM
[40]
  TGI: > 100 µM
[42]
  TGI: > 100 µM
[43]
  TGI: > 100 µM
[44]
  TGI: > 100 µM
[45]
  TGI: > 100 µM
[47]
  TGI: > 100 µM
[48]
  TGI: > 100 µM
[49]
  TGI: > 100 µM
[50]
  TGI: > 100 µM

## COc1ccc(CCNC2=CC(=O)c3ncccc3C2=O)cc1OC
[2]
  TGI: > 86 µM
[3]
  TGI: 17.2 µM
[4]
  TGI: 6.63 µM
[5]
  TGI: 10.6 µM
[51]
  TGI: 35.8 µM
[7]
  TGI: 5.12 µM
[8]
  TGI: 5.09 µM
[10]
  TGI: 29.6 µM
[11]
  TGI: 13.1 µM
[52]
  TGI: 12.2 µM
[53]
  TGI: 3.57 µM
[12]
  TGI: 21.2 µM
[13]
  TGI: 15.2 µM
[14]
  TGI: 2.69 µM
[15]
  TGI: 3.19 µM
[16]
  TGI: 2.58 µM
[54]
  TGI: 6.73 µM
[17]
  TGI: 1.75 µM
[55]
  TGI: 3.01 µM
[18]
  TGI: 4.73 µM
[19]
  TGI: 3.14 µM
[20]
  TGI: 4.73 µM
[56]
  TGI: 2.82 µM
[21]
  TGI: 7.27 µM
[22]
  TGI: 1.24 µM
[24]
  TGI: 7.63 µM
[25]
  TGI: 10.2 µM
[26]
  TGI: 0.793 µM
[57]
  TGI: 3.39 µM
[27]
  TGI: 7.9 µM
[29]
  TGI: 16.7 µM
[30]
  TGI: 2.13 µM
[31]
  TGI: 19.8 µM
[58]
  TGI: 0.924 µM
[32]
  TGI: > 75.2 µM
[59]
  TGI: 9.32 µM
[60]
  TGI: 8.36 µM
[33]
  TGI: 39.1 µM
[61]
  TGI: 24.7 µM
[34]
  TGI: 3.23 µM
[62]
  TGI: 3.72 µM
[63]
  TGI: 2.03 µM
[64]
  TGI: 23.4 µM
[35]
  TGI: 34.9 µM
[36]
  TGI: > 79.8 µM
[65]
  TGI: 5.32 µM
[37]
  TGI: 23.7 µM
[38]
  TGI: 3.59 µM
[39]
  TGI: 5.54 µM
[66]
  TGI: 2.45 µM
[40]
  TGI: 3.19 µM
[42]
  TGI: 24.4 µM
[43]
  TGI: 2.69 µM
[44]
  TGI: 14 µM
[45]
  TGI: 8.28 µM
[47]
  TGI: > 43 µM
[48]
  TGI: 2.21 µM
[49]
  TGI: 4.68 µM
[50]
  TGI: 2.51 µM

Reference: PubChem BioAssay (NCI)
